In patent US9260425B2 (Genetech, Inc., priority 2011, dated 2016):

Tests used:
BaF3 PIM1 cells = test: In vitro cell proliferation potency assay, BaF3 line transfected with PIM-1 (Cell Titer Glo); format: cell-based, murine; settings: Mus musculus, incubated overnight, read-out: Prolif. BaF3 PIM-1 (IC50)
Protocol: (§1) In Vitro Cell Proliferation Potency Assays
BaF3 parental line was obtained from the DSMZ repository. […] Mouse IL-3 was purchased from R&D Systems. G418 was purchased from Clontech. Media for BaF3 parental line contained RPMI, 10% FBS, 2 mM L-Glutamine, 2 ng/mL mIL-3. Media for BaF3 PIM1 & 2 lines contained RPMI, 10% FBS, 2 mM L-Glutamine, […]. Media for MM1.S (multiple myeloma cells) line contained RPMI, 10% FBS, 2 mM L-Glutamine.
(§2) BaF3, a murine interleukin-3 dependent pro-B cell line, parental cells, BaF3 PIM1 cells, BaF3 PIM-2 cells, and MM1.S (multiple myeloma) cells were seeded at 2 k/well, 5 k/well, 5 k/well, and 10 k/well respectively, in a 384-well plate, at 45 μL/well. Test compound was added at 5 μL/well. BaF3 cells (parental and transfected) were incubated overnight, while MM1.S cells were incubated for 72 hours at 37° C., 5% CO2. Cell Titer Glo Reagent (Promega) was added at 50 μL/well, the plates were incubated for 30 minutes, and their luminescence read on an HT Analyst. IC50/EC50 values for the test compound were calculated.

[1] = tested on: MM1.S (multiple myeloma) cells; test: In vitro cell proliferation potency assay, MM1.S cells (Cell Titer Glo); format: cell-based; settings: Homo sapiens, 72 hours, read-out: Prolif. MM1S ATP (EC50)
Protocol: as §1
(§3) BaF3 parental line was obtained from the DSMZ repository. BaF3 lines transfected with PIM-1 or PIM-2 were generated. Mouse IL-3 was purchased from R&D Systems. G418 was purchased from Clontech. Media for BaF3 parental line contained RPMI, 10% FBS, 2 mM L-Glutamine, 2 ng/mL mIL-3. Media for BaF3 PIM1 & 2 lines contained RPMI, 10% FBS, 2 mM L-Glutamine, […]. Media for MM1.S (multiple myeloma cells) line contained RPMI, 10% FBS, 2 mM L-Glutamine.
as §2

Pim-1 = Pim-1 (Homo sapiens (Human), UniProt P11309); test: Pim kinase binding activity assay (Example 901), PIM-1 enzyme, Caliper microfluidic peptide phosphorylation; format: biochemical; settings: 20 pM PIM-1, 10 μM ATP, 1 μM FAM-peptide, 90 minutes at room temperature
Chain of Pim-1 (P11309 whole entry): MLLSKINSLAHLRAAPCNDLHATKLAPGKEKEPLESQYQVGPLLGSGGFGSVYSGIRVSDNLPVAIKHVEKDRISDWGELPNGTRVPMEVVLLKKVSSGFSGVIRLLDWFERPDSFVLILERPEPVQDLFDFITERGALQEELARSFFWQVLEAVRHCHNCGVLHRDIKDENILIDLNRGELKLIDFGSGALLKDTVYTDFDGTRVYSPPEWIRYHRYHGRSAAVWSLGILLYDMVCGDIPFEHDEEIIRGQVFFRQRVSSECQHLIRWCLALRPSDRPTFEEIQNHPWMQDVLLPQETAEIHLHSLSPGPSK
Method in brief: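 PIM-1 at 20 pM phosphorylated 1 μM FAM-labelled Pim peptide with 10 μM ATP in HEPES pH 7.2, MgCl2, Tween 20 and DTT for 90 min at room temperature. EDTA stopped the reaction, and product and substrate were resolved by microfluidic electrophoresis (ex 488/em 530 nm). Ki was derived from substrate conversion.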

BaF3 parental cells = test: In vitro cell proliferation potency assay, BaF3 parental line with IL-3 (Cell Titer Glo); format: cell-based, murine; settings: Mus musculus, 2 ng/mL mIL-3, incubated overnight, read-out: Prolif. BaF3 IL3 (IC50)
Protocol: as §1, §3, §2

Row | Compound | IC50 (BaF3 PIM1 cells) [nM] | EC50 [1] [nM] | Ki (Pim-1) [nM] | IC50 (BaF3 parental cells) [nM]
1 | Cc1ccc(-c2n[nH]c3cnc(-c4cccnc4)cc23)nc1N1CC[C@@H](N)C1 [Example 316, (R)-1-(3-methyl-6-(5-(pyridin-3-yl)-1H-pyrazolo[3,4-c]pyridin-3-yl)pyridin-2-yl)pyrrolidin-3-amine] | 62.8 | 114 | 0.0549 | 1000
2 | Cn1cc(-c2cc3c(-c4ccc(Br)c(N5CCC[C@H](N)C5)n4)n[nH]c3cn2)cn1 [Example 376, (S)-1-(3-bromo-6-(5-(1-methyl-1H-pyrazol-4-yl)-1H-pyrazolo[3,4-c]pyridin-3-yl)pyridin-2-yl)piperidin-3-amine] | 30.9 | 356 | 0.009 | 4100
3 | N[C@@H]1CCCN(c2cccc(-c3n[nH]c4cnc(-c5cccnc5)cc34)n2)C1 [Example 149, (R)-1-(6-(5-(pyridin-3-yl)-1H-pyrazolo[3,4-c]pyridin-3-yl)pyridin-2-yl)piperidin-3-amine] | 261 | 166 | 0.027 | 1500
4 | NC1CCN(c2nc(-c3n[nH]c4cnc(-c5cccnc5)cc34)ccc2Cl)CC1 [Example 241, 1-(3-chloro-6-(5-(pyridin-3-yl)-1H-pyrazolo[3,4-c]pyridin-3-yl)pyridin-2-yl)piperidin-4-amine] | 584 | 57.3 | 0.096 | 1300
5 | C=Cc1ccc(-c2n[nH]c3cnc(-c4cccnc4)cc23)nc1N1CCC[C@H](N)C1 [Example 307, (S)-1-(6-(5-(pyridin-3-yl)-1H-pyrazolo[3,4-c]pyridin-3-yl)-3-vinylpyridin-2-yl)piperidin-3-amine] | 67.1 | 141 | 0.014 | 1400
6 | CCn1cc(-c2cc3c(-c4cccc(N5CCC[C@H](NC)C5)n4)n[nH]c3cn2)cn1 [Example 377, (S)-1-(6-(5-(1-ethyl-1H-pyrazol-4-yl)-1H-pyrazolo[3,4-c]pyridin-3-yl)pyridin-2-yl)-N-methylpiperidin-3-amine] | 63.7 | 230 | 0.08 | 5300
7 | N[C@H]1CCCN(c2cccc(-c3n[nH]c4cnc(-c5cccnc5)cc34)n2)C1 [Example 161, (S)-1-(6-(5-(pyridin-3-yl)-1H-pyrazolo[3,4-c]pyridin-3-yl)pyridin-2-yl)piperidin-3-amine] | 731 | 281 | 0.0411 | 1400
8 | Cn1cc(-c2cc3c(-c4cccc(N5CCCC(C)(O)C5)n4)n[nH]c3cn2)cn1 (stereo not shown) [Example 383, 3-methyl-1-(6-(5-(1-methyl-1H-pyrazol-4-yl)-1H-pyrazolo[3,4-c]pyridin-3-yl)pyridin-2-yl)piperidin-3-ol] | 110 | 170 | 0.078 | 1300
9 | N[C@@H]1CCCN(c2cccc(-c3n[nH]c4cnc(-c5cccnc5)cc34)n2)CC1 [Example 249, (R)-1-(6-(5-(pyridin-3-yl)-1H-pyrazolo[3,4-c]pyridin-3-yl)pyridin-2-yl)azepan-4-amine] | 518 | 191 | 0.02 | 2500
10 | CC(C)Cn1cc(-c2cc3c(-c4cccc(N5CCNCC5)n4)n[nH]c3cn2)cn1 [Example 381, 5-(1-isobutyl-1H-pyrazol-4-yl)-3-(6-(piperazin-1-yl)pyridin-2-yl)-1H-pyrazolo[3,4-c]pyridine] | 129 | 228 | 0.057 | 2200
